Series [1] is described as follows: Cmax in BALB/c mouse at 4 mg/kg, po. It counts as ADME, organism-based. Also noted: route oral, dose 4 mg/kg. The following applies: in vivo.
Series [2] is described as follows: Oral bioavailability in rat at 4 mg/kg. As to conditions: in vivo. Type of series: ADME, organism-based.
Series [3] in a line: Volume of distribution at steady state in dog at 1 mg/kg, iv. It counts as ADME, organism-based, Canis lupus familiaris. The following applies: in vivo, read-out: Vdss.
Series [4] in a line: Oral bioavailability in dog at 2 mg/kg. It counts as ADME, organism-based, Canis lupus familiaris. The following applies: in vivo.
The target of a further series is Cytochrome P450 2C19 (Homo sapiens, UniProt P33261). Briefly: Inhibition of recombinant CYP2C19 (unknown origin). It counts as ADME.
Chain of Cytochrome P450 2C19 (P33261 whole entry): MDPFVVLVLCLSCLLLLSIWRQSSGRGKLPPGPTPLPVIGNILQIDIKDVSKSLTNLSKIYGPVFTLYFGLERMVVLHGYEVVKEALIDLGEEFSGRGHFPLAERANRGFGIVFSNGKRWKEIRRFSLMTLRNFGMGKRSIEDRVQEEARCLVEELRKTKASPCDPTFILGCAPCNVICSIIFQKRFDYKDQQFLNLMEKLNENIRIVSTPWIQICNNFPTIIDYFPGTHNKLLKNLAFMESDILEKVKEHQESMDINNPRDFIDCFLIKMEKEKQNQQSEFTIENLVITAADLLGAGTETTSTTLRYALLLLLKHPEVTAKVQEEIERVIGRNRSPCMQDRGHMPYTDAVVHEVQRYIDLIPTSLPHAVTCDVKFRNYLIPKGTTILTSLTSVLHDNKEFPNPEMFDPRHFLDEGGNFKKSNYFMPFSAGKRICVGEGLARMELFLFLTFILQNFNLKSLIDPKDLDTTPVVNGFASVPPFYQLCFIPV
A short description of series [5]: Oral bioavailability in BALB/c mouse at 4 mg/kg. It counts as ADME, organism-based. As to conditions: in vivo.
For the next series, the target named is T1, Cytochrome P450 1A2 (Homo sapiens, UniProt P05177).
T1 sequence (P05177 whole entry): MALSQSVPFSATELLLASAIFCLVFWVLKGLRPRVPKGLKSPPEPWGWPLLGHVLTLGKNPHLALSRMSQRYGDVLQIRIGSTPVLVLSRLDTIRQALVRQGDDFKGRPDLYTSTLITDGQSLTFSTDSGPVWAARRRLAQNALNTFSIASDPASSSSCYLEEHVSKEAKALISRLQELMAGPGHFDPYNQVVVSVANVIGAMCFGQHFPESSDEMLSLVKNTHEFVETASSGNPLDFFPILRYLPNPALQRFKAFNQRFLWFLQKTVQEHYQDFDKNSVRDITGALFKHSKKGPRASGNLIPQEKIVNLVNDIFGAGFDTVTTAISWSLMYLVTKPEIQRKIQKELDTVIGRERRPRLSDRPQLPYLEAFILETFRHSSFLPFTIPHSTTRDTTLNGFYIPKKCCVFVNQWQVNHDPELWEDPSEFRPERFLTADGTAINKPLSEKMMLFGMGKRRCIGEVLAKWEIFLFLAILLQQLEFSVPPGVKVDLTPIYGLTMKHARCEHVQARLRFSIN
Kind of series: Inhibition of recombinant CYP1A2 (unknown origin). Type of series: ADME.

The nature of series [6]: Total AUC in rat at 4 mg/kg, po. It counts as ADME, organism-based. Also noted: time AUCmax, route oral, dose 4 mg/kg. The following applies: in vivo.
A short description of series [7]: Half life in cynomolgus monkey at 1 mg/kg, iv. It counts as ADME, organism-based, Macaca fascicularis. The following applies: in vivo.
The nature of series [8]: Volume of distribution at steady state in BALB/c mouse at 2 mg/kg, iv. Type of series: ADME, organism-based. As to conditions: in vivo, read-out: Vdss.
Series [9] in a line: Cmax in dog at 2 mg/kg, po. Type of series: ADME, organism-based, Canis lupus familiaris. Also noted: route oral, dose 2 mg/kg. As to conditions: in vivo.
Series [10] in a line: Total AUC in dog at 1 mg/kg, iv. It counts as ADME, organism-based, Canis lupus familiaris. Also noted: route intravenous, time AUCmax, dose 1 mg/kg. The following applies: in vivo.
Series [11] is described as follows: Oral bioavailability in cynomolgus monkey at 2 mg/kg. It counts as ADME, organism-based, Macaca fascicularis. As to conditions: in vivo.
The target of another series is T2, Cytochrome P450 2C8 (Homo sapiens, UniProt P10632).
T2 sequence (P10632 whole entry): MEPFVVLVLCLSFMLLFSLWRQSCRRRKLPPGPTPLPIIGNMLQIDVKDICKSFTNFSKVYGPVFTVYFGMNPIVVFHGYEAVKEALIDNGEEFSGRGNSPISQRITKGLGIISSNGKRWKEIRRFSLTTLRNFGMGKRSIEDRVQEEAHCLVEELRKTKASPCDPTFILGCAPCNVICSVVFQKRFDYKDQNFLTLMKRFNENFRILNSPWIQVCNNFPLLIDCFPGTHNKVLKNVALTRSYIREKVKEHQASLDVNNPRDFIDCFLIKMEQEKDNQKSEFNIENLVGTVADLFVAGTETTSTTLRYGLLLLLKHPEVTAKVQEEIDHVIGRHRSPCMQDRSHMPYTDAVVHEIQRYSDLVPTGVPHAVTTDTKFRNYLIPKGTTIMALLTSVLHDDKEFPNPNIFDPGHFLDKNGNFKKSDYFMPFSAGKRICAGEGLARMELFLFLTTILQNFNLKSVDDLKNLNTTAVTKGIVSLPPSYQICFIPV
Briefly: Inhibition of recombinant CYP2C8 (unknown origin). Type of series: ADME.

Series [12] in a line: Volume of distribution at steady state in cynomolgus monkey at 1 mg/kg, iv. Type of series: ADME, organism-based, Macaca fascicularis. The following applies: in vivo, read-out: Vdss.
Series [13] is described as follows: Half life in BALB/c mouse at 2 mg/kg, iv. The following applies: in vivo. It counts as ADME, organism-based.
Series [14] can be described thus: Permeability in human Caco-2 cells. It counts as ADME, cell-based. As to conditions: read-out: permeability.
In series [15] the target is T3, Oxysterols receptor LXR-alpha (Homo sapiens, UniProt Q13133).
T3 sequence (Q13133 whole entry): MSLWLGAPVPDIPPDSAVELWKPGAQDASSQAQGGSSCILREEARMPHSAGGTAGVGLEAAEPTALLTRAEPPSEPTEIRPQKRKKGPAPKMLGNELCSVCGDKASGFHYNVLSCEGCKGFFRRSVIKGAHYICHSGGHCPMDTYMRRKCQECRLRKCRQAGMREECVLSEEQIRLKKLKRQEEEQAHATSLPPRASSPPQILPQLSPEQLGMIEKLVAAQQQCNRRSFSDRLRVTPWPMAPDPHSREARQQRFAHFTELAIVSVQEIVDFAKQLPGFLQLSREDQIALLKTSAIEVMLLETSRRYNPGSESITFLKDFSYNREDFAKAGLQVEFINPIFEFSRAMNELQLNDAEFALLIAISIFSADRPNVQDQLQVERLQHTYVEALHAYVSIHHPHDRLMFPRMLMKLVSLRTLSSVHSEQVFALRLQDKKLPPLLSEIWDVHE
Briefly: Inverse agonist activity of LXRalpha (unknown origin).

The next series addresses Cytochrome P450 2C9 (Homo sapiens, UniProt P11712). Briefly: Inhibition of recombinant CYP2C9 (unknown origin). Type of series: ADME.
The nature of series [16]: Cmax in rat at 4 mg/kg, po. It counts as ADME, organism-based. Also noted: route oral, dose 4 mg/kg. The following applies: in vivo.
Series [17] is described as follows: Total AUC in cynomolgus monkey at 1 mg/kg, iv. The following applies: in vivo. Also noted: time AUCmax, route intravenous, dose 1 mg/kg. It counts as ADME, organism-based, Macaca fascicularis.
Series [18] in a line: Half life in dog at 1 mg/kg, iv. Type of series: ADME, organism-based, Canis lupus familiaris. As to conditions: in vivo.
The nature of series [19]: Solubility of compound at pH 6.5. As to conditions: buffer. Type of series: physicochemical.

Values after ≈ are worked out from the molar mass of the structure shown.

This note sets out measurements from ChEMBL document CHEMBL4699477, “Tricyclic sulfones as potent, selective and efficacious RORγt inverse agonists - Exploring C6 and C8 SAR using late-stage functionalization” (Bioorg Med Chem Lett, 2020).

Chain of Cytochrome P450 2C9 (P11712 whole entry): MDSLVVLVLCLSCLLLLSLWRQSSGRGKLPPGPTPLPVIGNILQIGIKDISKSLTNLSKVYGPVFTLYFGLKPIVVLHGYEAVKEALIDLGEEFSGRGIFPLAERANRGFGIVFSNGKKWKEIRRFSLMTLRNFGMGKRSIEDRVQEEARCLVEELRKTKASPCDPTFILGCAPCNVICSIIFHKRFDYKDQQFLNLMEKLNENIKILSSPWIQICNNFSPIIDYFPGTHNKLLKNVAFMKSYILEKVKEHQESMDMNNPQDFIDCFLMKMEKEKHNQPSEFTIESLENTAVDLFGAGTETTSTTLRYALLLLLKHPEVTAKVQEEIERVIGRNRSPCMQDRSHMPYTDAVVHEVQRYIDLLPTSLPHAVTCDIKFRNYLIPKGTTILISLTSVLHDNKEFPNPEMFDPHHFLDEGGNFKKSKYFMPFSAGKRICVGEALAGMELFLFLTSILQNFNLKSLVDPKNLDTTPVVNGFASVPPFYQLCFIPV

The term Cmax denotes the peak of the concentration-time curve. One may read the bioavailability as dose-corrected exposure relative to a reference, in per cent. For orientation: IC50 means the concentration that inhibits the measured activity by half. The AUC is the area under the concentration-time curve, a measure of exposure. In general, half-life refers to the time in which the quantity being followed falls by half. A word on the EC50: it is the midpoint of the concentration-response curve. In general, solubility refers to the concentration that dissolves in the medium under given conditions. `C[C@H]1C[C@H](C(=O)O)CC[C@H]1C(=O)N1CC[C@@]2(S(=O)(=O)c3ccccc3)c3cc(F)c(C(F)(C(F)(F)F)C(F)(F)F)cc3CC[C@@H]12`: the Cmax in series [1] amounted to 4.6 µM; in [9], 3.8 µM; in series [16], 4.1 µM. Also, the bioavailability in series [2] was 100%; in [4], 90%; in [5], 98%; in series [11] it was 100%. Also, the Vd was 0.7 L/kg in series [3], 1.6 L/kg in series [8] and 1.2 L/kg in series [12]. Besides, the half-maximal inhibitory concentration (IC50) on Cytochrome P450 2C19 is over 20 µM; on Cytochrome P450 1A2 it was over 20 µM; on Cytochrome P450 2C8 it was 1.9 µM; on Cytochrome P450 2C9 it was over 20 µM. Moreover, the figures for the AUC in [6], in series [10] and in series [17] were 44 µM·h, 80 µM·h and 23 µM·h, respectively. In addition, the values for the half-life in series [7], in series [13] and in [18] were 27 h, 7.7 h and 28 h, respectively. In addition, the Papp in [14] came out at 12 ×10⁻⁶ cm/s. In [15], this compound showed an EC50 of over 12 µM. This compound also showed a solubility in series [19] of 350 µg/mL (≈ 524 µM).
